Experimental findings from patent US6503952B2, “Triple antimicrobial composition” (The Trustees of Columbia University in the City of New York, priority 1995, dated 2003) are described below.

Test [1] relates to Staphylococcus aureus. As to the kind of experiment: Colony counts with CHX and PCMX (in 5% isopropanol) in the presence of blood. It is filed as cell-based. Conditions: Table 11: in 5% isopropanol, control 3 × 10^6. Here is the method:
[…] After one minute, a 50 microliter aliquot from each sample was diluted to a volume of 10 ml with LTSB drug inactivating medium (5% Tween 80, 2% lecithin, 0.6% sodium oleate, 0.5% sodium thiosulfate, 0.1% protease peptone and 0.1% tryptone), and then 0.5 ml of the diluted culture was plated on trypticase soy agar plates. The plates were incubated at 37° C. for 24 hours, and then colony counts per milliliter of the original 1 ml antimicrobial containing culture were determined.

The subject of test [2] is Staphylococcus aureus. The test can be described thus: Rate of kill: colony counts after one minute exposure of Staphylococcus aureus in TSB broth with 20% serum. The class given is cell-based. Conditions: for CFU/mL: Table 15: single agent, control 2.0 × 10^7. On the procedure:
To produce each sample, 0.1 ml of a ten-fold concentrated antimicrobial solution was added to 0.9 ml of TSB broth containing 20% serum and 107 colony forming units (CFU) of Staphylococcus aureus. After one minute, a 50 microliter aliquot from each sample was diluted to a volume of 10 ml with LTSB drug inactivating medium (5% Tween 80, 2% lecithin, 0.6% sodium oleate, 0.5% sodium thiosulfate, 0.1% protease peptone and 0.1% tryptone), and then 0.5 ml of the diluted culture was plated on trypticase soy agar plates. The plates were incubated at 37° C. for 24 hours, and then colony counts per milliliter of the original 1 ml antimicrobial containing culture were determined.
Using the same methods set forth in example section 5, above, the rate of kill of compositions comprising PHMB, PCMX, BZK and PXE were tested. […] Synergy was also observed among 0.1% PXE+0.05% PHMB+0.05% PCMX.

parachlorometaxylenol [.5% PCMX]: the CFU/ml in the test with Staphylococcus aureus [1] is 0 CFU/ml.

As for polyhexamethylene biguanide [PHMB], the CFU/mL in the test with Staphylococcus aureus [2] (concentration 0.025%) is reported as 5.0 × 10^6 CFU/mL; in the test with Staphylococcus aureus [2] (concentration 0.05%) it was 2.0 × 10^6 CFU/mL; in the test with Staphylococcus aureus [2] (concentration 0.1%), 4.0 × 10^6 CFU/mL.

Regarding `[H]/N=C(\N/C(=N/[H])NCCCCCCNC(=N)NC(=N)Nc1ccc(Cl)cc1)Nc1ccc(Cl)cc1` [1% CHX, chlorhexidine], in the test on Staphylococcus aureus [1], the CFU/ml is 1 × 10^4 CFU/ml.

Consider benzalkonium chloride [BZK], for which, in the test with Staphylococcus aureus [2] (concentration 0.02%), the CFU/mL is given as 2.0 × 10^7 CFU/mL.

For the compound parachlorometaxylenol [.25% PCMX], the CFU/ml in the test on Staphylococcus aureus [1] is recorded as 1.4 × 10^4 CFU/ml.

On to parachlorometaxylenol [PCMX], for which the “decrease in the number of CFU relative to control (factor / fold)” value in the test with Staphylococcus aureus [2] (2.5% ISOPR samples, relative to the control named in the text (A1, A2, A4 or the no-antimicrobial control)) is “ten”. The CFU/mL with Staphylococcus aureus [2] (concentration 0.05%) is listed as 5.0 × 10^6 CFU/mL; with Staphylococcus aureus [2] (concentration 0.1%), 1.6 × 10^3 CFU/mL.

Regarding `[H]/N=C(\N/C(=N/[H])NCCCCCCNC(=N)NC(=N)Nc1ccc(Cl)cc1)Nc1ccc(Cl)cc1` [.5% CHX, chlorhexidine], in the test on Staphylococcus aureus [1], the CFU/ml is given as 1 × 10^5 CFU/ml.

In the case of parachlorometaxylenol [.125% PCMX], the CFU/ml in the test on Staphylococcus aureus [1] is 1 × 10^6 CFU/ml.
